According to US5200407A, “Azole derivatives and anti-ulcerative composition containing same” (Meiji Seika Kaburhiki Kaisha, priority 1989, dated 1993):

System: ulceration
Experiment: Water-immersion, restraint stress ulcerogenic testing
Type: in vivo, Wister male rats
Conditions: Rattus norvegicus, Table 1, suspended in 0.5% CMC, one hour prior to stressing, water immersion restraint six hours, rats
Description: 1. Water-immersion, restraint stress ulcerogenic testing
Wister male rats (11-week age) fasted for 18 hours were placed in a restraint cage, which was in turn immersed to a depth of the pectoral region in water at 20° to 22° C. to leave the rats under stress for six hours. Then, the rats were drawn up from the water and put down by vertebral dislocation. Afterwards, the stomach was removed, infused with 50 ml of a 5% aqueous solution of formalin and was wholly immersed in the same solution for 30 minutes for fixation. The fixed sample was dissected along the curvatura ventriculi major, and the ulcerated regions were measured along their major length (in mm) by means of slide calipers. The total sum of the measurements per rat is a value of ulceration. The compounds under test, suspended in 0.5% carboxymethylcellulose (CMC), were administered to the rats at a single dose of 5 ml/kg body weight (corresponding to 30 mg/kg body weight of the compound) one hour prior to the stressing. To a control group, only 0.5% CMC was administrated at a dose of 5 ml/kg weight. The rate of depression of ulceration was calculated according to the following equation: [formula]

`CC1(C)CCCC(C)(C)N1CCSc1nc2ncccc2o1` [Example 47, 2-[(2-(2,2,6,6-tetramethylpiperidin-1-yl)ethyl)thio]oxazolo[4,5-b]pyridine] and `CC1(C)CCCC(C)(C)N1CCSc1nc2cccnc2o1` [Example 48, 2-[(2-(2,2,6,6-tetramethylpiperidin-1-yl)ethyl)thio]oxazolo[5,4-b]pyridine] are the same in inhibition in vivo at 30 mg/kg: 99% for the first, 99% for the second.

First: CC(C)N(CCSc1nc2ncccc2o1)C(C)C [Example 51, 2-[(2-di-isopropylaminoethyl)thio]oxazolo[4,5-b]pyridine]
Second: CC(C)N(CC[S+]([O-])c1nc2ncccc2s1)C(C)C (stereo not shown) [Example 136]
The inhibition in vivo at 30 mg/kg of the first is lower: 88% for the first, 94% for the second.

Going from `c1cnc2sc(SCCN3CCOCC3)nc2c1` [Example 65, 2-[(2-morpholinoethyl)thio]thiazolo[5,4-b]pyridine] to `[O-][S+](CCN1CCOCC1)c1nc2cccnc2s1` (stereo not shown) [Example 138], the inhibition in vivo at 30 mg/kg rises from 58% to 68%.

Going from `CN1CCCC1CCSc1nc2cccnc2s1` (stereo not shown) [Example 70, 2-[(2-(1-methylpyrrolidin-2-yl)ethyl)thio]thiazolo[5,4-b]pyridine] to `CN1CCCC1CC[S+]([O-])c1nc2cccnc2s1` (stereo not shown) [Example 144, 2-[(2-(1-methylpyrrolidin-2-y1)ethyl)sulfinyl]thiazolo[5,4-b]pyridine], the inhibition in vivo at 30 mg/kg rises from 42% to 85%.

Compared with `CCCCOC(=O)C[S+]([O-])c1nc2cccnc2s1` (stereo not shown) [Example 79, 2-[(n-butoxycarbonylmethyl)sulfinyl]thiazolo[5,4-b]pyridine], `CCOC(=O)C[S+]([O-])c1nc2cccnc2s1` (stereo not shown) [Example 128, 2-[(ethoxycarbonylmethyl)sulfinyl]thiazolo[5,4-b]pyridine] is higher in inhibition in vivo at 30 mg/kg: 76% for the first, 91% for the second.

First: C/C=C/COC(=O)C[S+]([O-])c1nc2cccnc2s1 (stereo not shown) [Example 84, 2-[(crotyloxycarbonylmethyl)sulfinyl]thiazolo[5,4-b]pyridine]
Second: C=CCOC(=O)C[S+]([O-])c1nc2cccnc2s1 (stereo not shown) [Example 89, 2-[(allyloxvcarbonylmethyl)sulfinyl]thiazolo[5,4-b]pyridine]
The inhibition in vivo at 30 mg/kg of the first is higher: 75% for the first, 72% for the second.

First: COC(=O)C[S+]([O-])c1nc2cccnc2s1 (stereo not shown) [Example 93, 2-[(methoxycarbonylmethyl)sulfinyl]thiazolo[5,4-b]pyridine]
Second: NC(=O)C[S+]([O-])c1nc2cccnc2s1 (stereo not shown) [Example 135, 2-[(carbamoylmethyl)sulfinyl]thiazolo[5,4-b]pyridine]
The inhibition in vivo at 30 mg/kg of the first is lower: 73% for the first, 86% for the second.

Going from `Cn1nnnc1CCCC[S+]([O-])c1nc2cccnc2s1` (stereo not shown) [Example 100, 2-[(4-(1-methyltetrazol-5-y1)butyl)sulfinyl]thiazolo[5,4-b]pyridine] to `Cn1nnnc1C[S+]([O-])c1nc2cccnc2s1` (stereo not shown) [Example 120, 2-[((1-methyltetrazol-5-yl)methyl)sulfinyl]thiazolo[5,4-b]pyridine], the inhibition in vivo at 30 mg/kg falls from 95% to 86%.

Compared with `CC(C)COC(=O)C[S+]([O-])c1nc2cccnc2s1` (stereo not shown) [Example 101, 2-[(isobutoxycarbonylmethyl)sulfinyl]thiazolo[5,4-b]pyridine], `CC(=O)OCC[S+]([O-])c1nc2cccnc2s1` (stereo not shown) [Example 110, 2-[(2-acetoxyethyl)sulfinyl]thiazolo[5,4-b]pyridine] is higher in inhibition in vivo at 30 mg/kg: 75% for the first, 79% for the second.

Compared with `C[S+]([O-])c1nc2cccnc2s1` (stereo not shown) [Example 103, 2-methylsulfinylthiazolo[5,4-b]pyridine], `CCOCC[S+]([O-])c1nc2cccnc2s1` (stereo not shown) [Example 121] is lower in inhibition in vivo at 30 mg/kg: 84% for the first, 67% for the second.

Compared with `CCOC(=O)C[S+]([O-])c1nc2ncccc2s1` (stereo not shown) [Example 104, 2-[(ethoxycarbonylmethyl)sulfinyl]thiazolo[4,5-b]pyridine], `CCOCC[S+]([O-])c1nc2cnccc2s1` (stereo not shown) [Example 123, 2-[(2-ethoxymethyl)sulfinyl]thiazolo[4,5-c]pyridine] is lower in inhibition in vivo at 30 mg/kg: 68% for the first, 15% for the second.

Compared with `O=C(C[S+]([O-])c1nc2cccnc2s1)NC1CCCCC1` (stereo not shown) [Example 117, 2-[(N-cyclohexylcarbamoylmethyl)sulfinyl]thiazolo[5,4-b]pyridine], `CN1CCCC(C[S+]([O-])c2nc3cccnc3s2)C1` (stereo not shown) [Example 147, 2-[(1-methylpiperidin-3-yl)methylsulfinyl]thiazolo[5,4-b]pyridine] is lower in inhibition in vivo at 30 mg/kg: 77% for the first, 64% for the second.

`CCOCC[S+]([O-])c1nc2cc(Cl)cnc2s1` (stereo not shown) [Example 122] and `[O-][S+](CCN1CCOCC1)c1nc2cc(Cl)cnc2s1` (stereo not shown) [Example 142] are the same in inhibition in vivo at 30 mg/kg: 13% for the first, 13% for the second.

Compared with `CCOCC[S+]([O-])c1nc2cccnc2[nH]1` (stereo not shown) [Example 124], `CCN(CC)CC[S+]([O-])c1nc2cccnc2s1` (stereo not shown) [Example 141] is higher in inhibition in vivo at 30 mg/kg: 25% for the first, 41% for the second.

Going from `[O-][S+](CCc1ccccn1)c1nc2cccnc2s1` (stereo not shown) [Example 125, 2-[2(pyridin-2-yl)-ethylsulfinyl]thiazolo[4,5-]pyridine] to `O=C1NCC(C[S+]([O-])c2nc3cccnc3s2)O1` (stereo not shown) [Example 126, 2-[(2-oxazolidion-5-yl)methylsulfinyl]thiazolo[5,4-b]pyridine], the inhibition in vivo at 30 mg/kg rises from 44% to 60%.

First: CC(C)=CC[S+]([O-])c1nc2cccnc2s1 (stereo not shown) [Example 127, 2-[(3-methyl-2-butenyl)sulfinyl]thiazolo[5,4-b]pyridine]
Second: CC(C)N(CC[S+]([O-])c1nc2cccnc2s1)C(C)C (stereo not shown) [Example 149, 2-[(2-di-isopropylaminoethvl)sulfinyl]thiazolo[5,4-b]pyridine]
The inhibition in vivo at 30 mg/kg of the first is lower: 0% for the first, 99% for the second.

Going from `CC1(C)CCCC(C)(C)N1CC[S+]([O-])c1nc2cccnc2s1` (stereo not shown) [Example 129, 2-[{2-(2,2,6,6-tetramethylpiperidin-1-yl)ethyl)sulfinyl]thiazolo[5,4-b]pyridine] to `CC1(C)CCCC(C)(C)N1CC[S+]([O-])c1nc2ncc(C(F)(F)F)cc2s1` (stereo not shown) [Example 133], the inhibition in vivo at 30 mg/kg falls from 99% to 98%.

First: CC(C)N(CC[S+]([O-])c1nc2cnccc2s1)C(C)C (stereo not shown) [Example 130]
Second: CC(C)N(CC[S+]([O-])c1nc2ncc(C(F)(F)F)cc2s1)C(C)C (stereo not shown) [Example 131]
The inhibition in vivo at 30 mg/kg of the first is higher: 76% for the first, 71% for the second.

Compared with `O=S(=O)(CCN1CCOCC1)c1nc2cccnc2s1` [Example 139], `CN1CCCC1CCS(=O)(=O)c1nc2cccnc2s1` (stereo not shown) [Example 145, 2-[(2-(1-methylpyrrolidin-2-yl)ethyl)sulfonyl]thiazolo[5,4-b]pyridine] is higher in inhibition in vivo at 30 mg/kg: 47% for the first, 68% for the second.

First: [O-][S+](CCN1CCOCC1)c1nc2cnccc2s1 (stereo not shown) [Example 140]
Second: [O-][S+](CCN1CCOCC1)c1nc2ncccc2[nH]1 (stereo not shown) [Example 143, 2-[(2-morpholinoethyl)sulfinyl]imidazo[4,5-b]pyridine]
The inhibition in vivo at 30 mg/kg of the first is higher: 58% for the first, 54% for the second.

First: CN1CCC([S+]([O-])c2nc3cccnc3s2)CC1 (stereo not shown) [Example 148, 2-[(1-methylpiperidin-4-yl)sulfinyl]thiazolo[5,4-b]pyridine]
Second: CN1CCN(CCC[S+]([O-])c2nc3cccnc3s2)CC1 (stereo not shown) [Example 151, 2-[(3-(1-methylpiperazin-4-yl)propyl)sulfinyl]thiazolo[5,4-b]pyridine]
The inhibition in vivo at 30 mg/kg of the first is higher: 78% for the first, 39% for the second.

Work on `CC(C)N(CCS(=O)(=O)c1nc2cccnc2s1)C(C)C` [Example 150, 2-[(2-di-isooropylaminoethyl)sulfonyl]thiazolo[5,4-b]pyridine] yielded an inhibition in vivo at 30 mg/kg of 61%.

Same assay, conditions: Table 1; 30 mg/kg, suspended in 0.5% CMC, one hour prior to stressing; water immersion restraint six hours; rats

With “2-[(2-ureidoethyl)sulfinyl]thiazolo[5,4-b]pyridine [Example 146]” the “% Ulceration Inhibition” value was 19%.

System: ulceration
Experiment: Ethanol-induced ulceration
Type: in vivo, Donryu masculine rats
Conditions: 30 mg/kg oral, in 0.5% CMC, one hour prior to 100% ethanol; control nearly 100% erosion; rats
Description: 2. Ethanol-induced ulceration
Five (5) ml/kg of 100% ethanol was orally administrated to Donryu masculine rats fasted for 48 hours and dehydrated for 24 hours. One hour later, the rats were put down in similar manners as mentioned above test to remove and treat the stomach. The compounds under test, suspended in 0.5% CMC, were orally administered to the rats at a dose of 5 ml/kg body weight (corresponding to 30 mg/kg body weight of that compound) one hour prior to the administration of ethanol.

Molecule `CCCCOC(=O)C[S+]([O-])c1nc2cccnc2s1` (stereo not shown) [Example 79, 2-[(n-butoxycarbonylmethyl)sulfinyl]thiazolo[5,4-b]pyridine] has a depression of erosion of 98%.

Same assay, conditions: Table 2; 30 mg/kg oral, in 0.5% CMC, one hour prior to 100% ethanol; rats

Going from `CCCCOC(=O)C[S+]([O-])c1nc2cccnc2s1` (stereo not shown) [Example 79, 2-[(n-butoxycarbonylmethyl)sulfinyl]thiazolo[5,4-b]pyridine] to `CCOC(=O)C[S+]([O-])c1nc2cccnc2s1` (stereo not shown) [Example 128, 2-[(ethoxycarbonylmethyl)sulfinyl]thiazolo[5,4-b]pyridine], the “% Ulceration Inhibition” value rises from 98% to 99%.

Going from `[O-][S+](CCN1CCOCC1)c1nc2cccnc2s1` (stereo not shown) [Example 138] to `CC(C)N(CC[S+]([O-])c1nc2cccnc2s1)C(C)C` (stereo not shown) [Example 149, 2-[(2-di-isopropylaminoethvl)sulfinyl]thiazolo[5,4-b]pyridine], the “% Ulceration Inhibition” value falls from 97% to 94%.

System: not listed separately
Experiment: Toxicity (LD50)
Conditions: mouse, in vivo; mice, oral
Text: The compounds of the present invention are of low toxicity, as appreciated from Example Compound Nos. 79, 104 and 133 having up to 1 g/kg of LD50 value (mice, by an oral).

`CCCCOC(=O)C[S+]([O-])c1nc2cccnc2s1` (stereo not shown) [Example 79, 2-[(n-butoxycarbonylmethyl)sulfinyl]thiazolo[5,4-b]pyridine] and `CCOC(=O)C[S+]([O-])c1nc2ncccc2s1` (stereo not shown) [Example 104, 2-[(ethoxycarbonylmethyl)sulfinyl]thiazolo[4,5-b]pyridine] cannot be ordered by LD50: at least 1000 mg/kg for the first, at least 1000 mg/kg for the second.

`CC1(C)CCCC(C)(C)N1CC[S+]([O-])c1nc2ncc(C(F)(F)F)cc2s1` (stereo not shown) [Example 133] showed an LD50 of at least 1000 mg/kg.
